Measurements as given in ChEMBL document CHEMBL3272337, “Synthesis of a fragment of human parathyroid hormore, hPTH-(44-68)” (J Med Chem, 1977).
Calls of active or inactive are those of the source. Peptide text beside a SMILES is read from it.

Experiments:
[1] = target: T1, Adenylate cyclase (Homo sapiens) (UniProt Q8NFM4+O60503+Q08828+P40145+O60266+O95622+O43306+Q08462+P51828); assay: Inhibition of bPTH-stimulated adenylyl cyclase (unknown origin) activity at 500:1 compound to native hormone molar ratio; type: protein assay
[2] = target: T1, Adenylate cyclase (Homo sapiens); assay: Agonist activity at adenylyl cyclase (unknown origin) at 1.35 x 10^-4 M; type: protein assay
Gallus gallus = assay: Induction of PTH-like activity in iv dosed chick by hypercalcemic assay; type: functional, organism-based

CC(C)C[C@H](NC(=O)[C@H](CO)NC(=O)[C@H](CCCCN)NC(=O)[C@H](CCC(=O)O)NC(=O)[C@H](Cc1cnc[nH]1)NC(=O)[C@H](CO)NC(=O)[C@H](CCC(=O)O)NC(=O)[C@@H](NC(=O)[C@H](CC(C)C)NC(=O)[C@@H](NC(=O)[C@H](CC(N)=O)NC(=O)[C@H](CC(=O)O)NC(=O)[C@H](CCC(=O)O)NC(=O)[C@H](CCCCN)NC(=O)[C@H](CCCCN)NC(=O)[C@H](CCCNC(=N)N)NC(=O)[C@@H]1CCCN1C(=O)[C@H](CCCNC(=N)N)NC(=O)[C@H](CCC(N)=O)NC(=O)[C@H](CO)NC(=O)CNC(=O)[C@H](C)NC(=O)[C@H](CC(=O)O)NC(=O)[C@@H](N)CCCNC(=N)N)C(C)C)C(C)C)C(=O)NCC(=O)O (H-RDAGSQRPRKKEDNVLVESHEKSLG-OH)
inactive: inhibition [1] | Activity [2] | Activity (Gallus gallus)
